Converted amounts (≈) assume the structure as drawn.

This passage reports MIC and IC50 results from publication PMC10672575, “The Polyketides with Antimicrobial Activities from a Mangrove Endophytic Fungus Trichoderma lentiforme ML-P8-2” (Marine Drugs, 2023).

Series [1] deals with methicillin-resistant Staphylococcus aureus (MRSA). The series is described as follows: Antibacterial MIC, serial dilution in 96-well plates.
Description: (§1) All measurements were conducted in triplicate. Ampicillin and ketoconazole were applied as positive controls for antibacterial and antifungal assays, respectively, and DMSO was utilized as a blank control.
For another series, the system named is Bacillus subtilis. The series is described as above.
For the next series, the system named is Staphylococcus aureus. Described as above.
The test system of the next series is Pseudomonas aeruginosa. Described as above.
Another series concerns Salmonella typhimurium. The description is as above. To be noted: Salmonella enterica.
For a further series, the target named is AChE (Homo sapiens, UniProt P22303). Nature of the series: biochemical. To be noted: average of two independent experiments; read-out: IC50 for AChE inhibitory activities. As for the experimental part:
Donepezil hydrochloride was taken as a positive control. All measurements were conducted in triplicate from two independent experiments. The reported IC50 was the average value of two independent experiments.

In another series the test system is Candida albicans. Nature of the series: Antifungal MIC, serial dilution in 96-well plates.
A further series deals with Penicillium italicum. Nature of the series: Antifungal MIC, serial dilution in 96-well plates.
A further series can be described thus: Cytotoxicity, MTT assay. It counts as cell-based. The conditions noted are these: human, A549 lung cancer cells. On the procedure:
The cytotoxicities of compounds 1–10 and eujavanicol A on cells were assessed using MTT assay as described previously. Six cell lines were used, MDA-MB-435 (breast cancer cells), MDA-MB-231 (breast cancer cells), HCT116 (colon cancer cells), A549 (lung cancer cells), SNB19 (glioma cells), and PC3 (prostate cancer cells), which were acquired from Fu Erbo Biotechnology Co., Ltd. (Guangzhou, China).
On the technique in general: Formazan colour is commonly taken as a measure of viable cells.

Chain of AChE (P22303 32-614): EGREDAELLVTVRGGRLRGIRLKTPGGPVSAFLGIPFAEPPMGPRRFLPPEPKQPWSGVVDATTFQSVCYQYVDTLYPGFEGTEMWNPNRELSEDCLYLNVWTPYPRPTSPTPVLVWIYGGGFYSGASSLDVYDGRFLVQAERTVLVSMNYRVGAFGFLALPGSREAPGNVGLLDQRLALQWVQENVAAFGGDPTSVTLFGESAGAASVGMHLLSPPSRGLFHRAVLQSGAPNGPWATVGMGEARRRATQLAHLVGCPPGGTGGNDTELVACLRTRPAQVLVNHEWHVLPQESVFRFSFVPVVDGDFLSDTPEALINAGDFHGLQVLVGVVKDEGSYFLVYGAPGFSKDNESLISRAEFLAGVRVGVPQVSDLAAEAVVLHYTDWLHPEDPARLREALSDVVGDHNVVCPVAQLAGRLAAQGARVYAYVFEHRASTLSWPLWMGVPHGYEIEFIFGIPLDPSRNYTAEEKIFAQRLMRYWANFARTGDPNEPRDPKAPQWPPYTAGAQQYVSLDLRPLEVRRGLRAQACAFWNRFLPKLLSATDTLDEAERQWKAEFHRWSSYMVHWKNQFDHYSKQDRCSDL
Description for Bacillus subtilis: as §1
Description for Candida albicans: as §1
Description for Pseudomonas aeruginosa: as §1
Description for Salmonella typhimurium: as §1

For `CC1(C)S[C@@H]2[C@H](NC(=O)[C@H](N)c3ccccc3)C(=O)N2[C@H]1C(=O)O` [Ampicillin, reference compound], the MIC in series [1] is 0.25 µM (≈ 0.0874 µg/mL); in the series with Bacillus subtilis, 0.25 µM (≈ 0.0874 µg/mL); in the series on Staphylococcus aureus, 0.25 µM (≈ 0.0874 µg/mL); in the series on Pseudomonas aeruginosa it was 0.13 µM (≈ 0.0454 µg/mL); with Salmonella typhimurium it was 0.25 µM (≈ 0.0874 µg/mL).
For `COc1cc(O)c2c(=O)c(C3CC(O)C(=O)O3)c(C)oc2c1` (centres unmarked) [Compound 1, 5-hydroxy-3-((3’R, 5’S)-3’-hydroxy-2’-oxotetrahydrofuran-5’-yl)-7-methoxy-2-methyl-4H-chromen-4-one], the MIC in [1] is > 100 µM; in the series on Bacillus subtilis, > 100 µM; against Staphylococcus aureus, > 100 µM; with Pseudomonas aeruginosa it was > 100 µM; against Candida albicans, 50 µM (≈ 15.3 µg/mL); against Penicillium italicum it was > 100 µM. In addition, in the series on Salmonella typhimurium, the MIC was > 100 µM. In addition, the IC50 on AChE is 38.6 ± 0.2 µM; in “Cytotoxicity, MTT assay”, 47.2 ± 5.5 µM.
With `COc1cc(OC)c2c(=O)c(CO)c(C)oc2c1` [Compound 2, 3-(hydroxymethyl)-5,7-dimethoxy-2-methyl-4H-chromen-4-one], the MIC in series [1] was > 100 µM; with Bacillus subtilis, > 100 µM; against Staphylococcus aureus it was > 100 µM; against Pseudomonas aeruginosa, > 100 µM; against Candida albicans, 100 µM (≈ 25 µg/mL); in the series on Penicillium italicum it was > 100 µM. In addition, the MIC in the series on Salmonella typhimurium was > 100 µM. Moreover, the half-maximal inhibitory concentration (IC50) at AChE turned out to be 33.7 ± 0.4 µM.
Turning to `COc1cc(O)c2c(=O)c(CO)c(C)oc2c1` [Compound 3, 5-hydroxy-3-(hydroxymethyl)-7-methoxy-2-methyl-4H-chromen-4-one], the MIC in [1] is > 100 µM; in the series with Bacillus subtilis, > 100 µM; in the series with Staphylococcus aureus, > 100 µM; against Pseudomonas aeruginosa it was > 100 µM; against Candida albicans it was 25 µM (≈ 5.91 µg/mL); with Penicillium italicum it was > 100 µM. Besides, the MIC in the series with Salmonella typhimurium is > 100 µM. Further, the IC50 on AChE amounted to 20.6 ± 0.3 µM.
In the case of `CCC(C)C1C=CC2C(O)C(OC(=O)C=C(C)CC(=O)O)CC(C)C2C1(C)C(=O)CCO` (centres unmarked) [Compound 6, Tandyukisin J], the MIC in [1] is > 100 µM; in the series on Bacillus subtilis, > 100 µM; in the series on Staphylococcus aureus, > 100 µM; in the series with Pseudomonas aeruginosa, > 100 µM; in the series with Candida albicans, 25 µM (≈ 11.3 µg/mL); against Penicillium italicum it was 6.25 µM (≈ 2.82 µg/mL). Also, the MIC with Salmonella typhimurium was > 100 µM. At AChE, the half-inhibitory concentration (IC50) is 40.2 ± 0.7 µM.
As for `CC[C@@H](C)[C@H]1C=C[C@H]2[C@H](O)[C@H](OC(=O)/C=C(\C)CC(=O)O)C[C@@H](C)[C@@H]2[C@@]1(C)C(=O)CCO` [Compound 7, trichoharzin], the MIC in [1] is > 100 µM; with Bacillus subtilis, > 100 µM; in the series with Staphylococcus aureus it was > 100 µM; against Pseudomonas aeruginosa, > 100 µM; against Candida albicans it was 50 µM (≈ 22.5 µg/mL); with Penicillium italicum, 12.5 µM (≈ 5.63 µg/mL). Moreover, the MIC in the series with Salmonella typhimurium was > 100 µM. Besides, at AChE, the IC50 was 38.3 ± 0.4 µM.
Turning to `CC[C@@H](C)[C@H]1C=C[C@H]2[C@H](O)[C@H](OC(=O)C/C(C)=C\C(=O)O)C[C@@H](C)[C@@H]2[C@@]1(C)C(=O)CCO` [Compound 8, tandyukisin D], the minimal inhibitory concentration (MIC) was > 100 µM in [1]; > 100 µM in the series with Bacillus subtilis; > 100 µM in the series with Staphylococcus aureus; 50 µM (≈ 22.5 µg/mL) in the series on Pseudomonas aeruginosa; 50 µM (≈ 22.5 µg/mL) against Candida albicans; 12.5 µM (≈ 5.63 µg/mL) with Penicillium italicum. This compound had an MIC in the series with Salmonella typhimurium of 50 µM (≈ 22.5 µg/mL). In addition, the IC50 at AChE amounted to 77.9 ± 1.7 µM.
`CC[C@@H](C)[C@H]1C=C[C@H]2[C@H](O)[C@H](OC(=O)C/C(C)=C/C(=O)O)C[C@@H](C)[C@@H]2[C@@]1(C)C(=O)CCO` [Compound 9, tandyukisin G]: the MIC in series [1] was > 100 µM; with Bacillus subtilis it was > 100 µM; in the series with Staphylococcus aureus, 50 µM (≈ 22.5 µg/mL); against Pseudomonas aeruginosa, 50 µM (≈ 22.5 µg/mL); against Candida albicans it was 25 µM (≈ 11.3 µg/mL); with Penicillium italicum, 6.25 µM (≈ 2.82 µg/mL). For the same compound, in the series on Salmonella typhimurium, the MIC was > 100 µM. At AChE, the IC50 worked out at 43.6 ± 0.4 µM.
For `CC[C@@H](C)[C@H]1C=C[C@H]2[C@H](OC(=O)C/C(C)=C\C(=O)O)[C@H](O)C[C@@H](C)[C@@H]2[C@@]1(C)C(=O)CCO` [Compound 10, tandyukisin C], the minimum inhibitory concentration (MIC) in series [1] was > 100 µM; in the series with Bacillus subtilis, > 100 µM; against Staphylococcus aureus, > 100 µM; against Pseudomonas aeruginosa, > 100 µM; in the series on Candida albicans, 25 µM (≈ 11.3 µg/mL); in the series on Penicillium italicum, 50 µM (≈ 22.5 µg/mL). Moreover, in the series on Salmonella typhimurium, the MIC is > 100 µM. At AChE, the IC50 turned out to be 50.9 ± 0.5 µM.
Regarding `CC[C@@H](C)[C@H]1C=C[C@H]2[C@H](O)[C@H](O)C[C@@H](C)[C@@H]2[C@@]1(C)C(=O)CCO` [Eujavanicol A, eujavanicol A], the MIC in series [1] is > 100 µM; against Bacillus subtilis, > 100 µM; in the series with Staphylococcus aureus, > 100 µM; with Pseudomonas aeruginosa it was > 100 µM; with Candida albicans, 25 µM (≈ 8.11 µg/mL); in the series with Penicillium italicum, 25 µM (≈ 8.11 µg/mL). Moreover, the MIC in the series with Salmonella typhimurium was > 100 µM. Besides, the IC50 at AChE was found to be 32.4 ± 0.7 µM.
With `CC(=O)N1CCN(c2ccc(OCC3COC(Cn4ccnc4)(c4ccc(Cl)cc4Cl)O3)cc2)CC1` (centres unmarked) [Ketoconazole, reference compound], the MIC worked out at 0.13 µM (≈ 0.0691 µg/mL) with Candida albicans and 1.56 µM (≈ 0.829 µg/mL) against Penicillium italicum.

In general, MIC refers to the lowest concentration found to suppress growth. As a reminder, the IC50 is the concentration that gives 50% inhibition.
